Measurements taken from the supplement of paper PMC11451515.

System: SEM cells
Assay: cell viability relative to DMSO control; higher = less cytotoxic
Settings: 48 h
Procedure, shortened: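 NOMO1, SEM and P12-Ichikawa leukemia cells spent at least four passages adapting to each medium before use. They were seeded at 500 cells/well (NOMO1, SEM) or 1000 cells/well (P12-Ichikawa) in 5 μl in 1536-well plates and pin-dosed with library compounds in DMSO at 11 threefold steps from 47 μM down to 0.79 nM. After 48 h at 37°C, CellTiter-Glo One luminescence was read. Viability is reported as a percentage of the DMSO wells on each plate, with cell-free wells as background.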

[1] = HPLM + 10% dialyzed FBS, 0.000781 µM
[2] = HPLM + 10% dialyzed FBS, 0.00234 µM
[3] = HPLM + 10% dialyzed FBS, 0.00702 µM
[4] = HPLM + 10% dialyzed FBS, 0.0211 µM
[5] = HPLM + 10% dialyzed FBS, 0.0632 µM
[6] = HPLM + 10% dialyzed FBS, 0.19 µM
[7] = HPLM + 10% dialyzed FBS, 0.569 µM
[8] = HPLM + 10% dialyzed FBS, 1.71 µM
[9] = HPLM + 10% dialyzed FBS, 5.12 µM
[10] = HPLM + 10% dialyzed FBS, 15.4 µM
[11] = HPLM + 10% dialyzed FBS, 46.1 µM
[12] = RPMI 5 mM glucose + 10% FBS, 0.000781 µM
[13] = RPMI 5 mM glucose + 10% FBS, 0.00234 µM
[14] = RPMI 5 mM glucose + 10% FBS, 0.00702 µM
[15] = RPMI 5 mM glucose + 10% FBS, 0.0211 µM
[16] = RPMI 5 mM glucose + 10% FBS, 0.0632 µM
[17] = RPMI 5 mM glucose + 10% FBS, 0.19 µM
[18] = RPMI 5 mM glucose + 10% FBS, 0.569 µM
[19] = RPMI 5 mM glucose + 10% FBS, 1.71 µM
[20] = RPMI 5 mM glucose + 10% FBS, 5.12 µM
[21] = RPMI 5 mM glucose + 10% FBS, 15.4 µM
[22] = RPMI 5 mM glucose + 10% FBS, 46.1 µM
[23] = RPMI 5 mM glucose + 10% dialyzed FBS, 0.000781 µM
[24] = RPMI 5 mM glucose + 10% dialyzed FBS, 0.00234 µM
[25] = RPMI 5 mM glucose + 10% dialyzed FBS, 0.00702 µM
[26] = RPMI 5 mM glucose + 10% dialyzed FBS, 0.0211 µM
[27] = RPMI 5 mM glucose + 10% dialyzed FBS, 0.0632 µM
[28] = RPMI 5 mM glucose + 10% dialyzed FBS, 0.19 µM
[29] = RPMI 5 mM glucose + 10% dialyzed FBS, 0.569 µM
[30] = RPMI 5 mM glucose + 10% dialyzed FBS, 1.71 µM
[31] = RPMI 5 mM glucose + 10% dialyzed FBS, 5.12 µM
[32] = RPMI 5 mM glucose + 10% dialyzed FBS, 15.4 µM
[33] = RPMI 5 mM glucose + 10% dialyzed FBS, 46.1 µM

| Compound | cell viability [1] [%] | cell viability [2] [%] | cell viability [3] [%] | cell viability [4] [%] | cell viability [5] [%] | cell viability [6] [%] | cell viability [7] [%] | cell viability [8] [%] | cell viability [9] [%] | cell viability [10] [%] | cell viability [11] [%] | cell viability [12] [%] | cell viability [13] [%] | cell viability [14] [%] | cell viability [15] [%] | cell viability [16] [%] | cell viability [17] [%] | cell viability [18] [%] | cell viability [19] [%] | cell viability [20] [%] | cell viability [21] [%] | cell viability [22] [%] | cell viability [23] [%] | cell viability [24] [%] | cell viability [25] [%] | cell viability [26] [%] | cell viability [27] [%] | cell viability [28] [%] | cell viability [29] [%] | cell viability [30] [%] | cell viability [31] [%] | cell viability [32] [%] | cell viability [33] [%] |
| --- | --- | --- | --- | --- | --- | --- | --- | --- | --- | --- | --- | --- | --- | --- | --- | --- | --- | --- | --- | --- | --- | --- | --- | --- | --- | --- | --- | --- | --- | --- | --- | --- | --- |
| CC(C)OC(=O)C(C(=O)OC(C)C)=C1S\C=C/S1 | 112 | 119 | 128 | 125 | 120 | 123 | 117 | 123 | 118 | 70.1 | 113 | 114 | 135 | 122 | 125 | 122 | 133 | 141 | 131 | 116 | 50.9 | 109 |  |  |  |  |  |  |  |  |  |  |  |
| CC(C)(C#N)c1cc(Cn2cncn2)cc(C(C)(C)C#N)c1 | 101 | 92.6 | 87.4 | 103 | 111 | 104 | 21.8 | 112 | 116 | 117 | 113 | 123 | 116 | 115 | 102 | 109 | 106 | 21.3 | 122 | 126 | 125 | 111 |  |  |  |  |  |  |  |  |  |  |  |
| Nc1ncnc2c1ncn2[C@@H]1O[C@@H](CO)[C@H](O)[C@@H]1O | 93.8 | 90.1 | 111 | 119 | 124 | 117 | 109 | 109 | 115 | 118 | 62.4 |  |  |  |  |  |  |  |  |  |  |  | 106 | 105 | 116 | 112 | 130 | 144 | 121 | 123 | 123 | 84.9 | 50.2 |
| COc1ccc([C@@H]2CC(=O)c3c(O)cc(O[C@@H]4O[C@H](CO[C@@H]5O[C@@H](C)[C@H](O)[C@@H](O)[C@H]5O)[C@@H](O)[C@H](O)[C@H]4O)cc3O2)cc1O | 98.6 | 101 | 119 | 114 | 109 | 120 | 103 | 102 | 112 | 107 | 74 | 117 | 106 | 107 | 102 | 111 | 106 | 115 | 116 | 103 | 111 | 52.7 | 110 | 138 | 108 | 115 | 126 | 114 | 131 | 120 | 119 | 127 | 44 |
| CCN(CC)CCCCNc1ncc2cc(-c3cc(OC)cc(OC)c3)c(NC(=O)NC(C)(C)C)nc2n1 | 89.9 | 104 | 119 | 114 | 86.2 | 98.6 | 105 | 84 | 70.3 | 46.2 | 9.92 | 118 | 113 | 107 | 109 | 100 | 90.7 | 92.1 | 78.8 | 87 | 53.6 | 17 | 112 | 105 | 113 | 106 | 97.7 | 108 | 95.4 | 81 | 76.6 | 44.9 | 14.4 |
| COC\1=C(/OC)C(=O)\C(=C(C)/C1=O)CCCCCCCCCCO | 97.8 | 92 | 92.4 | 120 | 119 | 132 | 133 | 99 | 119 | 112 | 90.8 | 109 | 109 | 127 | 105 | 132 | 136 | 124 | 112 | 136 | 123 | 90.6 | 122 | 129 | 123 | 115 | 129 | 125 | 137 | 113 | 141 | 98.6 | 68.3 |
| CNCCCC12CCC(c3ccccc31)c1ccccc12 | 96.5 | 108 | 105 | 99.7 | 116 | 114 | 110 | 105 | 93.5 | 89.6 | 59.5 | 87.3 | 97.3 | 98.2 | 99.4 | 76.6 | 104 | 106 | 100 | 90.5 | 85.2 | 63.8 | 113 | 125 | 105 | 110 | 111 | 115 | 128 | 107 | 106 | 118 | 75.5 |
| CC[S+](=O)([O-])c1cccc(-c2cc(C(=O)NC3CCN(C)CC3)c(C)c3[nH]c4ncc(C)cc4c23)c1 | 109 | 103 | 130 | 110 | 124 | 101 | 52.3 | 38.6 | 30.2 | 18.8 | 8.97 | 114 | 120 | 140 | 120 | 138 | 83.2 | 46.6 | 27.7 | 20.6 | 12.9 | 5.92 | 99.2 | 92.5 | 135 | 127 | 118 | 82.6 | 46 | 31.9 | 23.8 | 20.6 | 6.33 |
